Reference: US20230114728A1 (Venatorx Pharmaceuticals, Inc., priority 2019, published 2023)
Converted amounts (≈) assume the structure as drawn.

Experiments:
N. gonorrhoeae H041 = assay: Liquid broth MIC in Fastidious broth; format: cell-based; details: Neisseria gonorrhoeae, H041, read-out: Minimum Inhibitory Concentration, N. gonorrhoeae H041
How it was run: (§1)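 Mosaic-PBP2 strains grown 24 h on chocolate agar (36 °C, 5% CO2), then direct-suspended in saline and OD600-adjusted. Twofold compound dilutions in Fastidious broth inoculated at 5×10^5 CFU/mL and incubated ~24 h at 36 °C, 5% CO2. MIC read visually as lowest concentration with <10% growth versus full-growth wells.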

N. gonorrhoeae WHO Q = assay: Liquid broth MIC in Fastidious broth; format: cell-based; details: Neisseria gonorrhoeae, read-out: Minimum Inhibitory Concentration, N. gonorrhoeae WHO Q
How it was run: as §1

[1] = system: N. gonorrhoeae ATCC 49226; assay: Liquid broth MIC in Fastidious broth; format: cell-based; details: Neisseria gonorrhoeae, ATCC49226; N. gonorrhoeae strain ATCC 49226; Fastidious broth; read-out: Minimum Inhibitory Concentration, N. gonorrhoeae ATCC 49226
How it was run: (§2)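 Colonies were swabbed from chocolate agar after 24 h growth and standardised by optical density at 600 nm. Compounds were serially diluted twofold in Fastidious broth, and bacteria added to give 5×10^5 CFU/mL. After about 24 h at 36 °C in 5% CO2, the lowest concentration allowing under 10% growth was taken as MIC.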

N. gonorrhoeae WHO L = assay: Liquid broth MIC in Fastidious broth; format: cell-based; details: Neisseria gonorrhoeae; N. gonorrhoeae strain WHO L; Fastidious broth; read-out: Minimum Inhibitory Concentration, N. gonorrhoeae WHO L
How it was run: as §2

N. gonorrhoeae FA1090 = assay: Liquid broth MIC in Fastidious broth; format: cell-based; details: Neisseria gonorrhoeae; N. gonorrhoeae strain FA1090; Fastidious broth; read-out: Minimum Inhibitory Concentration, N. gonorrhoeae FA1090
How it was run: as §2

N. gonorrhoeae WHO Z = assay: Liquid broth MIC in Fastidious broth; format: cell-based; details: Neisseria gonorrhoeae, read-out: Minimum Inhibitory Concentration, N. gonorrhoeae WHO Z
How it was run: as §1

N. gonorrhoeae WHO G = assay: Liquid broth MIC in Fastidious broth; format: cell-based; details: Neisseria gonorrhoeae; N. gonorrhoeae strain WHO G; Fastidious broth; read-out: Minimum Inhibitory Concentration, N. gonorrhoeae WHO G
How it was run: as §2

N. gonorrhoeae WHO K = assay: Liquid broth MIC in Fastidious broth; format: cell-based; details: Neisseria gonorrhoeae, read-out: Minimum Inhibitory Concentration, N. gonorrhoeae WHO K
How it was run: as §1

P. aeruginosa PBP3 = target: T1, P. aeruginosa PBP3 (Pseudomonas aeruginosa, UniProt G3XD46); assay: Bocillin-FL fluorescence polarization competition binding assay, P. aeruginosa PBP3; details: fluorescence polarization competition binding assay using Bocillin-FL
T1 construct: made in house
How it was run: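 Binding of boronic acid inhibitors to purified Pseudomonas aeruginosa (PA01) PBP3 was measured by fluorescence polarization competition with Bocillin-FL, a fluorescent penicillin V. Reactions of 80 μl contained 0.75 μM PBP3 and 0.1 μM Bocillin-FL in 50 mM Hepes (pH 8.0), 300 mM NaCl and 5% (v/v) glycerol, in black 384-well plates. FP (Excitation 490 nm, Emission 520 nm) was read for up to 60 minutes. EC50 is the concentration that halves PBP-bound Bocillin-FL.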

T1 sequence (G3XD46 whole entry): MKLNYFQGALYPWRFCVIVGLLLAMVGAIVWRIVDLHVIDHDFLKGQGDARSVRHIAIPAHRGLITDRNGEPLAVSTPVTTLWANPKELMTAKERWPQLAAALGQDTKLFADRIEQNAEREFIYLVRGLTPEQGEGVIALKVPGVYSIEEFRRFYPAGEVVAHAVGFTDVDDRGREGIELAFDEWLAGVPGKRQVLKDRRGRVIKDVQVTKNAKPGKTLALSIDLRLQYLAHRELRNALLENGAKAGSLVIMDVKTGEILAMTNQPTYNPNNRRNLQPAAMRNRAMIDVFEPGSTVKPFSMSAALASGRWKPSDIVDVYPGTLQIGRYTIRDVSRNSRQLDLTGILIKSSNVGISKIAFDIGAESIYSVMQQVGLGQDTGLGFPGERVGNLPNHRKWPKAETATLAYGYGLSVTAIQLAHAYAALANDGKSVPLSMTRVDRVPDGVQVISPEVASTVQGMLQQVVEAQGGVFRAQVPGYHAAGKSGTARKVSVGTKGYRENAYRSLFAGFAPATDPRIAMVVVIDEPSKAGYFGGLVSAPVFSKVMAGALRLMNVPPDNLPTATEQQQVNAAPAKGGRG

Row | SMILES | MIC (N. gonorrhoeae H041) [mg/L] | MIC (N. gonorrhoeae WHO Q) [mg/L] | MIC [1] [mg/L] | MIC (N. gonorrhoeae WHO L) [mg/L] | MIC (N. gonorrhoeae FA1090) [mg/L] | MIC (N. gonorrhoeae WHO Z) [mg/L] | MIC (N. gonorrhoeae WHO G) [mg/L] | MIC (N. gonorrhoeae WHO K) [mg/L] | P. aeruginosa PBP3 Potency (P. aeruginosa PBP3)
1 | CCN1CCN(C(=O)NC(C(=O)N[C@H]2Cc3cccc(C(=O)O)c3OB2O)c2cc(Cl)c(C(=O)O)cc2F)C(=O)C1=O (stereo partly drawn) [Example 138, (3R)-3-(2-(4-carboxy-5-chloro-2-fluorophenyl)-2-(4-ethyl-2,3-dioxopiperazine-1-carboxamido)acetamido)-2-hydroxy-3,4-dihydro-2H-benzo[e][1,2]oxaborinine-8-carboxylic acid] | 16 to 32 (≈ 26.5 to 52.9 µM) | 4 to 8 (≈ 6.61 to 13.2 µM) | 4 to 8 (≈ 6.61 to 13.2 µM) | 16 to 32 (≈ 26.5 to 52.9 µM) | < 0.125 | 4 to 8 (≈ 6.61 to 13.2 µM) | 1 to 2 (≈ 1.65 to 3.31 µM) | 16 to 32 (≈ 26.5 to 52.9 µM) | D (D represents a potency <10 μM)
2 | CCN1CCN(C(=O)NC(C(=O)N[C@H]2Cc3cccc(C(=O)O)c3OB2O)c2cc(F)c(C(=O)O)c(F)c2)C(=O)C1=O (stereo partly drawn) [Example 141, (3R)-3-(2-(4-carboxy-3,5-difluorophenyl)-2-(4-ethyl-2,3-dioxopiperazine-1-carboxamido)acetamido)-2-hydroxy-3,4-dihydro-2H-benzo[e][1,2]oxaborinine-8-carboxylic acid] | 4 to 8 (≈ 6.8 to 13.6 µM) | 1 to 2 (≈ 1.7 to 3.4 µM) | 1 to 2 (≈ 1.7 to 3.4 µM) | 4 to 8 (≈ 6.8 to 13.6 µM) | < 0.125 | 1 to 2 (≈ 1.7 to 3.4 µM) | 0.25 to 0.5 (≈ 0.425 to 0.85 µM) | 1 to 2 (≈ 1.7 to 3.4 µM) | D (D represents a potency <10 μM)
3 | NCCN1CCN(C(=O)NC(C(=O)N[C@H]2Cc3cccc(C(=O)O)c3OB2O)c2ccc(C(=O)O)cc2O)C(=O)C1=O (stereo partly drawn) [Example 142, (3R)-3-(2-(4-(2-aminoethyl)-2,3-dioxopiperazine-1-carboxamido)-2-(4-carboxy-2-hydroxyphenyl)acetamido)-2-hydroxy-3,4-dihydro-2H-benzo[e][1,2]oxaborinine-8-carboxylic acid] | > 64 | > 64 | 16 to 32 (≈ 27.4 to 54.9 µM) | > 64 | 4 to 8 (≈ 6.86 to 13.7 µM) | > 64 | 4 to 8 (≈ 6.86 to 13.7 µM) | > 64 | C (C represents a potency between 10 and 30 μM)
4 | CCN1CCN(C(=O)NC(C(=O)N[C@H]2Cc3cccc(C(=O)O)c3OB2O)c2ccc(C(=O)O)cc2F)C(=O)C1=O (stereo partly drawn) [Example 145, (3R)-3-(2-(4-carboxy-2-fluorophenyl)-2-(4-ethyl-2,3-dioxopiperazine-1-carboxamido)acetamido)-2-hydroxy-3,4-dihydro-2H-benzo[e][1,2]oxaborinine-8-carboxylic acid] | 4 to 8 (≈ 7.01 to 14 µM) | 4 to 8 (≈ 7.01 to 14 µM) | 1 to 2 (≈ 1.75 to 3.51 µM) | 16 to 32 (≈ 28.1 to 56.1 µM) | < 0.125 | 4 to 8 (≈ 7.01 to 14 µM) | 1 to 2 (≈ 1.75 to 3.51 µM) | 4 to 8 (≈ 7.01 to 14 µM) | D (D represents a potency <10 μM)
5 | CCN1CCN(C(=O)NC(C(=O)N[C@H]2Cc3cccc(C(=O)O)c3OB2O)c2c(Cl)cc(C(=O)O)cc2Cl)C(=O)C1=O (stereo partly drawn) [Example 150, (3R)-3-(2-(4-carboxy-2,6-dichlorophenyl)-2-(4-ethyl-2,3-dioxopiperazine-1-carboxamido)acetamido)-2-hydroxy-3,4-dihydro-2H-benzo[e][1,2]oxaborinine-8-carboxylic acid] | > 64 | > 64 | > 64 | > 64 | 4 to 8 (≈ 6.44 to 12.9 µM) | > 64 | 16 to 32 (≈ 25.8 to 51.5 µM) | > 64 | D (D represents a potency <10 μM)
6 | NCCN1CCN(C(=O)NC(C(=O)N[C@H]2Cc3cccc(C(=O)O)c3OB2O)c2ccc(C(=O)O)c(Cl)c2)C(=O)C1=O (stereo partly drawn) [Example 153, (3R)-3-(2-(4-(2-aminoethyl)-2,3-dioxopiperazine-1-carboxamido)-2-(4-carboxy-3-chlorophenyl)acetamido)-2-hydroxy-3,4-dihydro-2H-benzo[e][1,2]oxaborinine-8-carboxylic acid] | > 64 | 16 to 32 (≈ 26.6 to 53.2 µM) | 16 to 32 (≈ 26.6 to 53.2 µM) | > 64 | 1 to 2 (≈ 1.66 to 3.32 µM) | 16 to 32 (≈ 26.6 to 53.2 µM) | 4 to 8 (≈ 6.65 to 13.3 µM) | 16 to 32 (≈ 26.6 to 53.2 µM) | D (D represents a potency <10 μM)
7 | O=C(O)c1cccc2c1OB(O)[C@@H](NC(=O)C(NC(=O)N1CCNC1=O)c1c(F)cc(O)cc1F)C2 (stereo partly drawn) [Example 156, (3R)-3-(2-(2,6-difluoro-4-hydroxyphenyl)-2-(2-oxoimidazolidine-1-carboxamido)acetamido)-2-hydroxy-3,4-dihydro-2H-benzo[e][1,2]oxaborinine-8-carboxylic acid] | > 64 | > 64 | 16 to 32 (≈ 31.7 to 63.5 µM) | > 64 | 1 to 2 (≈ 1.98 to 3.97 µM) | > 64 | 4 to 8 (≈ 7.93 to 15.9 µM) | > 64 | D (D represents a potency <10 μM)
8 | CCN1CCN(C(=O)NC(C(=O)N[C@H]2Cc3cccc(C(=O)O)c3OB2O)c2c(F)cc(C(=O)O)cc2F)C(=O)C1=O (stereo partly drawn) [Example 157, (3R)-3-(2-(4-carboxy-2,6-difluorophenyl)-2-(4-ethyl-2,3-dioxopiperazine-1-carboxamido)acetamido)-2-hydroxy-3,4-dihydro-2H-benzo[e][1,2]oxaborinine-8-carboxylic acid] | 16 to 32 (≈ 27.2 to 54.4 µM) | 4 to 8 (≈ 6.8 to 13.6 µM) | 4 to 8 (≈ 6.8 to 13.6 µM) | 4 to 8 (≈ 6.8 to 13.6 µM) | < 0.125 | 4 to 8 (≈ 6.8 to 13.6 µM) | 1 to 2 (≈ 1.7 to 3.4 µM) | 4 to 8 (≈ 6.8 to 13.6 µM) | D (D represents a potency <10 μM)
9 | CCN1CCN(C(=O)NC(C(=O)N[C@H]2Cc3cccc(C(=O)O)c3OB2O)c2cc(F)c(O)c(F)c2)C(=O)C1=O (stereo partly drawn) [Example 160, (3R)-3-(2-(3,5-difluoro-4-hydroxyphenyl)-2-(4-ethyl-2,3-dioxopiperazine-1-carboxamido)acetamido)-2-hydroxy-3,4-dihydro-2H-benzo[e][1,2]oxaborinine-8-carboxylic acid] | 16 to 32 (≈ 28.6 to 57.1 µM) | 4 to 8 (≈ 7.14 to 14.3 µM) | 4 to 8 (≈ 7.14 to 14.3 µM) | 16 to 32 (≈ 28.6 to 57.1 µM) | < 0.125 | 4 to 8 (≈ 7.14 to 14.3 µM) | 1 to 2 (≈ 1.78 to 3.57 µM) | 16 to 32 (≈ 28.6 to 57.1 µM) | D (D represents a potency <10 μM)
10 | NCCN1CCN(C(=O)NC(C(=O)N[C@H]2Cc3cccc(C(=O)O)c3OB2O)c2cc(F)c(O)c(Cl)c2)C(=O)C1=O (stereo partly drawn) [Example 163, (3R)-3-(2-(4-(2-aminoethyl)-2,3-dioxopiperazine-1-carboxamido)-2-(3-chloro-5-fluoro-4-hydroxyphenyl)acetamido)-2-hydroxy-3,4-dihydro-2H-benzo[e][1,2]oxaborinine-8-carboxylic acid] | > 64 | > 64 | > 64 | > 64 | 1 to 2 (≈ 1.69 to 3.38 µM) | > 64 | 16 to 32 (≈ 27 to 54.1 µM) | > 64 | D (D represents a potency <10 μM)
